Key:
Experiment in all cases: relative viability (nuclei count vs DMSO), 5 days (fraction); higher = more cells survive
201T = system: 201T
In short: (§1)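 Dosing by pin tool came one day after lung cancer cell lines were seeded in 1536-well plates, using either one drug or a fixed anchor-drug dose plus five library-drug doses (not always all listed) in √10 steps. After 5 days, nuclei were counted on 4× images. Relative viability is treated-well nuclei count divided by vehicle-well nuclei count, and values are medians of duplicate plates.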

ABC-1 = system: ABC-1
In short: as §1

BEN = system: BEN
In short: as §1

CAL-12T = system: CAL-12T
In short: as §1

COR-L 105 = system: COR-L 105
In short: as §1

EKVX = system: EKVX
In short: as §1

HARA = system: HARA
In short: as §1

HCC-366 = system: HCC-366
In short: as §1

LK-2 = system: LK-2
In short: as §1

LOU-NH91 = system: LOU-NH91
In short: as §1

NCI-H1437 = system: NCI-H1437
In short: as §1

NCI-H1650 = system: NCI-H1650
In short: as §1

NCI-H1666 = system: NCI-H1666
In short: as §1

NCI-H2009 = system: NCI-H2009
In short: as §1

NCI-H2170 = system: NCI-H2170
In short: as §1

NCI-H3122 = system: NCI-H3122
In short: as §1

NCI-H441 = system: NCI-H441
In short: as §1

NCI-H460 = system: NCI-H460
In short: as §1

NCI-H661 = system: NCI-H661
In short: as §1

NCI-H727 = system: NCI-H727
In short: as §1

PC-14 = system: PC-14
In short: as §1

SW 900 = system: SW 900
In short: as §1

**Q.** Which relative viability (201T; first compound 0.08 µM) does the source give for `COc1nc(C)cnc1NS(=O)(=O)c1cccnc1-c1ccc(-c2nnco2)cc1` [Zibotentan] + Cc1nc(Nc2ncc(C(=O)Nc3c(C)cccc3Cl)s2)cc(N2CCN(CCO)CC2)n1 [Dasatinib] (partner 0.075 µM) here?
**A.** Its relative viability is 0.676.

**Q.** And the relative viability (201T; first compound 0.253 µM)?
**A.** The relative viability was 0.569.

**Q.** What about the relative viability (201T; first compound 0.8 µM) of the same molecule?
**A.** Its relative viability is 0.576.

**Q.** What about the relative viability (201T; first compound 2.53 µM) of the same molecule?
**A.** Its relative viability is 0.624.

**Q.** And the relative viability (ABC-1; first compound 0.08 µM)?
**A.** The relative viability was 0.568.

**Q.** And the relative viability (ABC-1; first compound 0.253 µM)?
**A.** Its relative viability is 0.572.

**Q.** And the relative viability (ABC-1; first compound 0.8 µM)?
**A.** The relative viability was 0.548.

**Q.** What about the relative viability (ABC-1; first compound 2.53 µM) of the same molecule?
**A.** Its relative viability is 0.556.

**Q.** And the relative viability (BEN; first compound 0.08 µM)?
**A.** The relative viability was 0.289.

**Q.** And the relative viability (BEN; first compound 0.253 µM)?
**A.** The relative viability was 0.32.

**Q.** What about the relative viability (BEN; first compound 0.8 µM) of the same molecule?
**A.** The relative viability was 0.316.

**Q.** And the relative viability (BEN; first compound 2.53 µM)?
**A.** The relative viability was 0.353.

**Q.** What about the relative viability (CAL-12T; first compound 0.08 µM) of the same molecule?
**A.** The relative viability was 0.484.

**Q.** And the relative viability (CAL-12T; first compound 0.253 µM)?
**A.** Its relative viability is 0.473.

**Q.** And the relative viability (CAL-12T; first compound 0.8 µM)?
**A.** Its relative viability is 0.34.

**Q.** What about the relative viability (CAL-12T; first compound 2.53 µM) of the same molecule?
**A.** The relative viability was 0.479.

**Q.** What about the relative viability (COR-L 105; first compound 0.08 µM) of the same molecule?
**A.** The relative viability was 0.32.

**Q.** And the relative viability (COR-L 105; first compound 0.253 µM)?
**A.** Its relative viability is 0.353.

**Q.** What about the relative viability (COR-L 105; first compound 0.8 µM) of the same molecule?
**A.** The relative viability was 0.381.

**Q.** What about the relative viability (COR-L 105; first compound 2.53 µM) of the same molecule?
**A.** Its relative viability is 0.405.

**Q.** And the relative viability (EKVX; first compound 0.08 µM)?
**A.** Its relative viability is 0.612.

**Q.** And the relative viability (EKVX; first compound 0.253 µM)?
**A.** Its relative viability is 0.529.

**Q.** What about the relative viability (EKVX; first compound 0.8 µM) of the same molecule?
**A.** Its relative viability is 0.392.

**Q.** What about the relative viability (EKVX; first compound 2.53 µM) of the same molecule?
**A.** The relative viability was 0.572.

**Q.** And the relative viability (HARA; first compound 0.08 µM)?
**A.** Its relative viability is 0.239.

**Q.** What about the relative viability (HARA; first compound 0.253 µM) of the same molecule?
**A.** The relative viability was 0.227.

**Q.** And the relative viability (HARA; first compound 0.8 µM)?
**A.** The relative viability was 0.24.

**Q.** And the relative viability (HARA; first compound 2.53 µM)?
**A.** The relative viability was 0.243.

**Q.** And the relative viability (HCC-366; first compound 0.08 µM)?
**A.** Its relative viability is 0.73.

**Q.** And the relative viability (HCC-366; first compound 0.253 µM)?
**A.** The relative viability was 0.584.

**Q.** And the relative viability (HCC-366; first compound 0.8 µM)?
**A.** The relative viability was 0.359.

**Q.** What about the relative viability (HCC-366; first compound 2.53 µM) of the same molecule?
**A.** The relative viability was 0.652.

**Q.** And the relative viability (LK-2; first compound 0.08 µM)?
**A.** The relative viability was 0.293.

**Q.** And the relative viability (LK-2; first compound 0.253 µM)?
**A.** The relative viability was 0.221.

**Q.** And the relative viability (LK-2; first compound 0.8 µM)?
**A.** The relative viability was 0.275.

**Q.** And the relative viability (LK-2; first compound 2.53 µM)?
**A.** The relative viability was 0.318.

**Q.** And the relative viability (LOU-NH91; first compound 0.08 µM)?
**A.** The relative viability was 0.577.

**Q.** What about the relative viability (LOU-NH91; first compound 0.253 µM) of the same molecule?
**A.** The relative viability was 0.485.

**Q.** What about the relative viability (LOU-NH91; first compound 0.8 µM) of the same molecule?
**A.** Its relative viability is 0.539.

**Q.** What about the relative viability (LOU-NH91; first compound 2.53 µM) of the same molecule?
**A.** The relative viability was 0.577.

**Q.** And the relative viability (NCI-H1437; first compound 0.08 µM)?
**A.** Its relative viability is 0.408.

**Q.** What about the relative viability (NCI-H1437; first compound 0.253 µM) of the same molecule?
**A.** Its relative viability is 0.292.

**Q.** What about the relative viability (NCI-H1437; first compound 0.8 µM) of the same molecule?
**A.** The relative viability was 0.283.

**Q.** And the relative viability (NCI-H1437; first compound 2.53 µM)?
**A.** The relative viability was 0.428.

**Q.** What about the relative viability (NCI-H1650; first compound 0.08 µM) of the same molecule?
**A.** Its relative viability is 0.35.

**Q.** What about the relative viability (NCI-H1650; first compound 0.8 µM) of the same molecule?
**A.** The relative viability was 0.27.

**Q.** And the relative viability (NCI-H1650; first compound 2.53 µM)?
**A.** The relative viability was 0.4.

**Q.** What about the relative viability (NCI-H1666; first compound 0.08 µM) of the same molecule?
**A.** Its relative viability is 0.883.

**Q.** What about the relative viability (NCI-H1666; first compound 0.253 µM) of the same molecule?
**A.** The relative viability was 0.706.

**Q.** What about the relative viability (NCI-H1666; first compound 0.8 µM) of the same molecule?
**A.** The relative viability was 0.821.

**Q.** And the relative viability (NCI-H1666; first compound 2.53 µM)?
**A.** Its relative viability is 0.907.

**Q.** What about the relative viability (NCI-H2009; first compound 0.08 µM) of the same molecule?
**A.** The relative viability was 0.287.

**Q.** And the relative viability (NCI-H2009; first compound 0.253 µM)?
**A.** The relative viability was 0.28.

**Q.** What about the relative viability (NCI-H2009; first compound 0.8 µM) of the same molecule?
**A.** Its relative viability is 0.306.

**Q.** And the relative viability (NCI-H2009; first compound 2.53 µM)?
**A.** Its relative viability is 0.292.

**Q.** And the relative viability (NCI-H2170; first compound 0.08 µM)?
**A.** The relative viability was 0.59.

**Q.** What about the relative viability (NCI-H2170; first compound 0.253 µM) of the same molecule?
**A.** Its relative viability is 0.612.

**Q.** What about the relative viability (NCI-H2170; first compound 0.8 µM) of the same molecule?
**A.** The relative viability was 0.52.

**Q.** What about the relative viability (NCI-H2170; first compound 2.53 µM) of the same molecule?
**A.** Its relative viability is 0.469.

**Q.** And the relative viability (NCI-H3122; first compound 0.08 µM)?
**A.** Its relative viability is 0.807.

**Q.** And the relative viability (NCI-H3122; first compound 0.253 µM)?
**A.** The relative viability was 0.817.

**Q.** And the relative viability (NCI-H3122; first compound 0.8 µM)?
**A.** Its relative viability is 0.701.

**Q.** What about the relative viability (NCI-H3122; first compound 2.53 µM) of the same molecule?
**A.** Its relative viability is 0.751.

**Q.** What about the relative viability (NCI-H441; first compound 0.08 µM) of the same molecule?
**A.** Its relative viability is 0.715.

**Q.** What about the relative viability (NCI-H441; first compound 0.253 µM) of the same molecule?
**A.** The relative viability was 0.476.

**Q.** And the relative viability (NCI-H441; first compound 0.8 µM)?
**A.** The relative viability was 0.679.

**Q.** And the relative viability (NCI-H441; first compound 2.53 µM)?
**A.** Its relative viability is 0.677.

**Q.** What about the relative viability (NCI-H460; first compound 0.08 µM) of the same molecule?
**A.** The relative viability was 0.559.

**Q.** And the relative viability (NCI-H460; first compound 0.253 µM)?
**A.** The relative viability was 0.391.

**Q.** What about the relative viability (NCI-H460; first compound 0.8 µM) of the same molecule?
**A.** Its relative viability is 0.504.

**Q.** What about the relative viability (NCI-H460; first compound 2.53 µM) of the same molecule?
**A.** The relative viability was 0.602.

**Q.** What about the relative viability (NCI-H661; first compound 0.08 µM) of the same molecule?
**A.** The relative viability was 0.924.

**Q.** And the relative viability (NCI-H661; first compound 0.253 µM)?
**A.** The relative viability was 0.805.

**Q.** And the relative viability (NCI-H661; first compound 0.8 µM)?
**A.** The relative viability was 0.943.

**Q.** And the relative viability (NCI-H661; first compound 2.53 µM)?
**A.** The relative viability was 0.939.

**Q.** What about the relative viability (NCI-H727; first compound 0.08 µM) of the same molecule?
**A.** Its relative viability is 0.333.

**Q.** And the relative viability (NCI-H727; first compound 0.253 µM)?
**A.** The relative viability was 0.251.

**Q.** And the relative viability (NCI-H727; first compound 0.8 µM)?
**A.** The relative viability was 0.279.

**Q.** What about the relative viability (NCI-H727; first compound 2.53 µM) of the same molecule?
**A.** Its relative viability is 0.372.

**Q.** And the relative viability (PC-14; first compound 0.08 µM)?
**A.** Its relative viability is 0.26.

**Q.** And the relative viability (PC-14; first compound 0.253 µM)?
**A.** Its relative viability is 0.172.

**Q.** And the relative viability (PC-14; first compound 0.8 µM)?
**A.** The relative viability was 0.243.

**Q.** What about the relative viability (PC-14; first compound 2.53 µM) of the same molecule?
**A.** The relative viability was 0.277.

**Q.** What about the relative viability (SW 900; first compound 0.08 µM) of the same molecule?
**A.** The relative viability was 0.633.

**Q.** What about the relative viability (SW 900; first compound 0.253 µM) of the same molecule?
**A.** Its relative viability is 0.59.

**Q.** And the relative viability (SW 900; first compound 0.8 µM)?
**A.** The relative viability was 0.562.

**Q.** And the relative viability (SW 900; first compound 2.53 µM)?
**A.** The relative viability was 0.911.
